Data reported in patent US20260125360A1, “HERBICIDAL IMIDAZOLE COMPOUNDS” (SYNGENTA CROP PROTECTION AG, priority 2022, published 2026).

Columns and labels:
Format in all cases: in vivo
Settings in all cases: 250 g/ha, evaluated after 13 days
[1] = system: Amaranthus palmeri (AMAPA); test: Pre-emergence herbicide glasshouse test
Summary of the method: (§1)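 Spray: acetone/water 50:50 + 0.5% Tween 20, 250 g/ha unless stated; 1 d (pre) or 8 d (post) after sowing. Glasshouse 24/16° C, 14 h light, 65% RH, watered twice daily. Read-out at 13 d: % damage binned 1–5 (5=81-100%, 1=0-20%).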

[2] = system: Ipomoea hederacea (IPOHE); test: Pre-emergence herbicide glasshouse test
Summary of the method: as §1

[3] = system: Echinochloa crus-galli (ECHCG); test: Pre-emergence herbicide glasshouse test
Summary of the method: as §1

[4] = system: Amaranthus retoflexus (AMARE); test: Pre-emergence herbicide glasshouse test
Summary of the method: as §1

[5] = system: Amaranthus palmeri (AMAPA); test: Post-emergence herbicide glasshouse test
Summary of the method: as §1

[6] = system: Ipomoea hederacea (IPOHE); test: Post-emergence herbicide glasshouse test
Summary of the method: as §1

[7] = system: Echinochloa crus-galli (ECHCG); test: Post-emergence herbicide glasshouse test
Summary of the method: as §1

[8] = system: Amaranthus retoflexus (AMARE); test: Post-emergence herbicide glasshouse test
Summary of the method: as §1

| Compound | percentage damage caused to the plant, AMAPA (five-point scale) [1] | percentage damage caused to the plant, IPOHE (five-point scale) [2] | percentage damage caused to the plant, ECHCG (five-point scale) [3] | percentage damage caused to the plant, AMARE (five-point scale) [4] | percentage damage caused to the plant, AMAPA (five-point scale) [5] | percentage damage caused to the plant, IPOHE (five-point scale) [6] | percentage damage caused to the plant, ECHCG (five-point scale) [7] | percentage damage caused to the plant, AMARE (five-point scale) [8] |
| --- | --- | --- | --- | --- | --- | --- | --- | --- |
| Cn1cnc(Cn2cc(C(F)(F)F)nc2-c2ccc(Cl)nc2)n1 [Compound 1.087] | 5 (5=81-100%) | 5 (5=81-100%) | 5 (5=81-100%) | 5 (5=81-100%) | 5 (5=81-100%) | 5 (5=81-100%) | 5 (5=81-100%) | 5 (5=81-100%) |
| CCc1nc(Cn2cc(C(F)(F)F)nc2-c2ccc(Cl)nc2)no1 [Compound 1.090] | 5 (5=81-100%) | 5 (5=81-100%) | 4 (4=61-80%) | 5 (5=81-100%) | 5 (5=81-100%) | 5 (5=81-100%) | 4 (4=61-80%) | 5 (5=81-100%) |
| CCc1cnc(Cn2cc(C(F)(F)F)nc2-c2ccc(Cl)nc2)o1 [Compound 1.092] | 5 (5=81-100%) | 5 (5=81-100%) | 5 (5=81-100%) | 5 (5=81-100%) | 4 (4=61-80%) | 4 (4=61-80%) | 5 (5=81-100%) | 4 (4=61-80%) |
| Cc1cnc(Cn2cc(C(F)(F)F)nc2-c2ccc(Cl)nc2)o1 [Compound 1.094] | 5 (5=81-100%) | 4 (4=61-80%) | 5 (5=81-100%) | 5 (5=81-100%) | 5 (5=81-100%) | 3 (3=41-60%) | 4 (4=61-80%) | 5 (5=81-100%) |
| Cc1coc(Cn2cc(C(F)(F)F)nc2-c2ccc(Cl)nc2)n1 [Compound 1.096] | 5 (5=81-100%) | 5 (5=81-100%) | 5 (5=81-100%) | 5 (5=81-100%) | 5 (5=81-100%) | 3 (3=41-60%) | 4 (4=61-80%) | 5 (5=81-100%) |
| Cc1nc(Cn2cc(C(F)(F)F)nc2-c2ccc(Cl)nc2)no1 [Compound 1.097] | 5 (5=81-100%) | 5 (5=81-100%) | 5 (5=81-100%) | 5 (5=81-100%) | 5 (5=81-100%) | 5 (5=81-100%) | 5 (5=81-100%) | 5 (5=81-100%) |
| CCc1noc(Cn2cc(C(F)(F)F)nc2-c2ccc(Cl)nc2)n1 [Compound 1.098] | 5 (5=81-100%) | 4 (4=61-80%) | 1 (1=0-20%) | 5 (5=81-100%) | 4 (4=61-80%) | 3 (3=41-60%) | 1 (1=0-20%) | 4 (4=61-80%) |
| CCn1cc(Cl)c(Cn2cc(C(F)(F)F)nc2-c2ccc(Cl)nc2)n1 [Compound 1.100] | 1 (1=0-20%) | 1 (1=0-20%) | 1 (1=0-20%) | 1 (1=0-20%) | 1 (1=0-20%) | 1 (1=0-20%) | 1 (1=0-20%) | 1 (1=0-20%) |
| Cc1noc(Cn2cc(C(F)(F)F)nc2-c2ccc(Cl)nc2)n1 [Compound 1.101] | 5 (5=81-100%) | 5 (5=81-100%) | 1 (1=0-20%) | 5 (5=81-100%) | 4 (4=61-80%) | 5 (5=81-100%) | 1 (1=0-20%) | 4 (4=61-80%) |
| Cn1nnc(Cn2cc(C(F)(F)F)nc2-c2ccc(Cl)nc2)n1 [Compound 1.109] | 5 (5=81-100%) | 5 (5=81-100%) | 5 (5=81-100%) | 5 (5=81-100%) | 5 (5=81-100%) | 5 (5=81-100%) | 1 (1=0-20%) | 5 (5=81-100%) |
| CCn1cc(Cn2cc(C(F)(F)F)nc2-c2ccc(Cl)nc2)nn1 [Compound 1.110] | 5 (5=81-100%) | 5 (5=81-100%) | 3 (3=41-60%) | 5 (5=81-100%) | 4 (4=61-80%) | 4 (4=61-80%) | 1 (1=0-20%) | 4 (4=61-80%) |
| FC(F)(F)c1cn(Cc2ccns2)c(-c2ccc(Cl)nc2)n1 [Compound 1.113] | 1 (1=0-20%) | 1 (1=0-20%) | 1 (1=0-20%) | 1 (1=0-20%) | 1 (1=0-20%) | 1 (1=0-20%) | 1 (1=0-20%) | 1 (1=0-20%) |
| FC(F)(F)c1cn(Cc2ccc(Cl)s2)c(-c2ccc(Cl)nc2)n1 [Compound 1.117] | 5 (5=81-100%) | 1 (1=0-20%) | 1 (1=0-20%) | 5 (5=81-100%) | 5 (5=81-100%) | 2 (2=21-40%) | 1 (1=0-20%) | 5 (5=81-100%) |
| FC(F)(F)c1cn(Cc2ncco2)c(-c2ccc(Cl)nc2)n1 [Compound 1.118] | 5 (5=81-100%) | 5 (5=81-100%) | 1 (1=0-20%) | 5 (5=81-100%) | 3 (3=41-60%) | 3 (3=41-60%) | 1 (1=0-20%) | 3 (3=41-60%) |
